Measured values published in patent publication US20040033273A1, “Withasol and methods of use” (AyurCore, Inc., priority 2001, published 2004).

System: BALB/c mouse implanted with ascitic sarcoma (S-180), CP treated
Conditions: for Hb / Platelet Count (×10^3/mcl) / RBC Count (×10^6/mcl) / WBC Difference Count (%) Lymphocytes / WBC Difference Count (%) Polymorph / WBC Total Count (×10^3/mcl): CP +: CP 150 mg/kg ip day 11, coded drug 100 mg/kg (vehicle for CP alone) po day 1-15, blood day 16; for Difference in Weight (g) from Day 1 to 16: CP +: S-180 bearing antigen-challenged mice, CP 150 mg/kg ip day 11, coded drug 100 mg/kg (vehicle for CP alone) po day 1-15; for change in body weight / change in HA antibody titers / change in HL antibody titers / change in hemoglobin content / change in platelet counts / change in red cell counts / change in white cell differential counts / change in white cell total counts: vs group IV (tumor +, CP +, vehicle), drug po day 1-15, CP 150 mg/kg ip day 11, ANOVA; for change in HA antibody titers / change in HL antibody titers / change in hemoglobin content / change in platelet counts / change in red cell counts / change in white cell differential counts / change in white cell total counts: day 16
[1] = Tumor +, CP +: CP 150 mg/kg ip day 11, coded drug 100 mg/kg (vehicle for CP alone) po day 1-15, serum day 16, mean +/- SD
[2] = tumor-bearing CP-treated mice, vs CP alone

Row | Structure (SMILES) | Hb (Tumor +, mean +/- SD) | Platelet Count (×10^3/mcl) (Tumor +, mean +/- SD) | RBC Count (×10^6/mcl) (Tumor +, mean +/- SD) | WBC Difference Count (%) Lymphocytes (Tumor +, mean +/- SD) | WBC Difference Count (%) Polymorph (Tumor +, mean +/- SD) | WBC Total Count (×10^3/mcl) (Tumor +, mean +/- SD) | CF Titre (Log2) [1] | HA Titre (Log2) [1] | Difference in Weight (g) from Day 1 to 16 (Tumor +, mean +/- SD) | effect on CP-induced immunosuppression / immunostimulatory activity (conclusion) [2] | effect on CP-induced myelosuppression (conclusion) [2] | other activity indicated (conclusion) [2] | change in body weight | change in HA antibody titers | change in HL antibody titers | change in hemoglobin content | change in platelet counts | change in red cell counts | change in white cell differential counts | change in white cell total counts
1 | O=C1O[C@H]([C@@H](O)CO)C(O)=C1O [Drug T, Vitamin C] | 15.37 ± 1.481 g/dL | 822.67 +/− 234.142 ×10^3/mcl | 4.25 +/− 0.661 ×10^6/mcl | 63.30 +/− 6.266% | 36.70 +/− 6.266% | 7.13 +/− 0.949 ×10^3/mcl | 5.67 +/− 0.516 Log2 | 5.33 +/− 0.516 Log2 | -2.67 ± 1.751 g | protective effect on CP-induced myelo and immunosuppression | protective effect on CP-induced myelo and immunosuppression | mild hematinic activity | no significant change | significantly increased | significantly increased | significantly increased | No significant change | No significant change | no significant change | significantly increased
2 | O=S(=O)(O)CCS [Mesna] | 14.08 ± 1.689 g/dL | 608.83 +/− 239.813 ×10^3/mcl | 4.12 +/− 0.609 ×10^6/mcl | 62.42 +/− 9.902% | 37.58 +/− 9.902% | 3.67 +/− 1.218 ×10^3/mcl |  | 2.17 +/− 0.408 Log2 | -2.5 ± 1.049 g | no effect on body weight and CP-induced myelo and immunosuppression | no effect on body weight and CP-induced myelo and immunosuppression |  | no significant change | no significant change | no significant change | no significant change | no significant change | no significant change | no significant change | no significant change
